Measured values from ChEMBL document CHEMBL1156572, “Synthesis, stereochemical identification, and selective inhibitory activity against human monoamine oxidase-B of 2-methylcyclohexylidene-(4-arylthiazol-2-yl)hydrazones” (J Med Chem, 2008).

What was measured:
[1] = biological target: T1, Amine oxidase [flavin-containing] A (Homo sapiens, UniProt P21397); details: read-out: INH
T1 sequence (P21397 whole entry): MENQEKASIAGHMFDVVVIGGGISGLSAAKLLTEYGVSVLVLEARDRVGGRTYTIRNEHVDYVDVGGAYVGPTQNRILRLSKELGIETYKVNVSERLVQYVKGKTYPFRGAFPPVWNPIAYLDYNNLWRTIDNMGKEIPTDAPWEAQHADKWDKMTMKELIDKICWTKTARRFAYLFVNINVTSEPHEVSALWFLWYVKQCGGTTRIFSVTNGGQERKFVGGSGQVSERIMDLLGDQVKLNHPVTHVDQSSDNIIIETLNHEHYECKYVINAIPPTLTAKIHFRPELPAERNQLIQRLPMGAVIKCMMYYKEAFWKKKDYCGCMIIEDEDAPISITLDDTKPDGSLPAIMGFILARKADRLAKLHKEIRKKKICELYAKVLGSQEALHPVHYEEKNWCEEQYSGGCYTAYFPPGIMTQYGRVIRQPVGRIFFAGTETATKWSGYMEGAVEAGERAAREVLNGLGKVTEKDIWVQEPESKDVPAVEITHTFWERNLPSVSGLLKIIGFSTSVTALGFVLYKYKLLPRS
Description: Inhibition of human recombinant MAOA before repeated washing at 500 uM

[2] = biological target: T1, Amine oxidase [flavin-containing] A; details: read-out: INH; remark: listed apart in the source
Description: Inhibition of human recombinant MAOA after washing at 500 uM by centrifugation-ultrafiltration method

Compound: O=C(NCCN1CCOCC1)c1ccc(Cl)cc1 [MOCLOBEMIDE]
- inhibition at 500 µM [1]: 86.8%
- inhibition at 500 µM [2]: 10.3%
